Reference: patent US9546176B2, “Small molecule bicyclic and tricyclic CFTR correctors” (DISCOVERYBIOMED, INC., priority 2012, dated 2017)
Where two headings read alike, the source gives them in different places.

Target: T1, delF508-CFTR (Homo sapiens, UniProt P13569, DEL508-508)
T1 construct: endogenous in cells; host or cells: CFBE41o- human CF bronchial epithelial cells (delF508 homozygous)
Assay: SPQ halide-sensitive fluorescence dye assay for rescue of halide efflux (8-point concentration-response)
Format: cell-based
Conditions: for EC50: read-out: SPQ EC50; for potency and efficacy compared with VX-809 in SPQ assay: versus VX-809
Method: The method of profiling can include detecting the rescue of halide efflux from a cell. The step of detecting a rescue of halide efflux from the cell can be monitored using the halide quenched dye 6-methoxy-N-(3-sulfopropyl)-quinolinium (SPQ, Molecular Probes Inc., Eugene, Oreg.). In this method, cells are treated with a compound as described herein for a period of time (e.g., 48 hours). The rescue or correction of halide efflux is then detected using the SPQ assay with the halide dye. […] Optionally, the halide efflux is chloride efflux. The method of screening can further comprise performing the method with multiple concentrations of the compound.
The compounds were initially subjected to the SPQ halide-sensitive fluorescence dye profiling assay for rescue or correction of membrane chloride ion permeability or transport with an 8-point concentration-response curve. The EC50 values for the compounds described herein were determined using SPQ (Table 1). The ΔSPQ value was calculated by determining the difference between the maximum and minimum SPQ values for the compounds.
To perform the SPQ high throughput screening assay, CFBE41o-cells were seeded into 96-well microtiter plates and were loaded with the fluorescent halide-sensitive dye, SPQ, in serum-containing culture medium. Certain wells were loaded with known positive control corrector molecules, including the industry standard Vertex 809 (VX-809; Vertex Pharmaceuticals, Cambridge, Mass.) at 3 μM, which is the maximally effective profiling dose for VX-809. The test compounds were loaded into wells and were tested in triplicate wells at a 10 μM dose and incubated over 48 hours at room temperature. During the 48 hour period, SPQ was absorbed. Plates were washed in a sodium chloride (NaCl) based Ringer and read once over two minutes to set the baseline SPQ fluorescence activity. Then, NaCl was replaced by sodium nitrate (NaNO3) based Ringer. The plates were read twice over four minutes. The primary high throughput screen (HTS) data were analyzed to detect any function of rescued delF508-CFTR under basal conditions. The plate was read up to two times to complete the SPQ HTS assay.

T1 sequence (P13569 with tags, fused parts or gaps DEL508-508): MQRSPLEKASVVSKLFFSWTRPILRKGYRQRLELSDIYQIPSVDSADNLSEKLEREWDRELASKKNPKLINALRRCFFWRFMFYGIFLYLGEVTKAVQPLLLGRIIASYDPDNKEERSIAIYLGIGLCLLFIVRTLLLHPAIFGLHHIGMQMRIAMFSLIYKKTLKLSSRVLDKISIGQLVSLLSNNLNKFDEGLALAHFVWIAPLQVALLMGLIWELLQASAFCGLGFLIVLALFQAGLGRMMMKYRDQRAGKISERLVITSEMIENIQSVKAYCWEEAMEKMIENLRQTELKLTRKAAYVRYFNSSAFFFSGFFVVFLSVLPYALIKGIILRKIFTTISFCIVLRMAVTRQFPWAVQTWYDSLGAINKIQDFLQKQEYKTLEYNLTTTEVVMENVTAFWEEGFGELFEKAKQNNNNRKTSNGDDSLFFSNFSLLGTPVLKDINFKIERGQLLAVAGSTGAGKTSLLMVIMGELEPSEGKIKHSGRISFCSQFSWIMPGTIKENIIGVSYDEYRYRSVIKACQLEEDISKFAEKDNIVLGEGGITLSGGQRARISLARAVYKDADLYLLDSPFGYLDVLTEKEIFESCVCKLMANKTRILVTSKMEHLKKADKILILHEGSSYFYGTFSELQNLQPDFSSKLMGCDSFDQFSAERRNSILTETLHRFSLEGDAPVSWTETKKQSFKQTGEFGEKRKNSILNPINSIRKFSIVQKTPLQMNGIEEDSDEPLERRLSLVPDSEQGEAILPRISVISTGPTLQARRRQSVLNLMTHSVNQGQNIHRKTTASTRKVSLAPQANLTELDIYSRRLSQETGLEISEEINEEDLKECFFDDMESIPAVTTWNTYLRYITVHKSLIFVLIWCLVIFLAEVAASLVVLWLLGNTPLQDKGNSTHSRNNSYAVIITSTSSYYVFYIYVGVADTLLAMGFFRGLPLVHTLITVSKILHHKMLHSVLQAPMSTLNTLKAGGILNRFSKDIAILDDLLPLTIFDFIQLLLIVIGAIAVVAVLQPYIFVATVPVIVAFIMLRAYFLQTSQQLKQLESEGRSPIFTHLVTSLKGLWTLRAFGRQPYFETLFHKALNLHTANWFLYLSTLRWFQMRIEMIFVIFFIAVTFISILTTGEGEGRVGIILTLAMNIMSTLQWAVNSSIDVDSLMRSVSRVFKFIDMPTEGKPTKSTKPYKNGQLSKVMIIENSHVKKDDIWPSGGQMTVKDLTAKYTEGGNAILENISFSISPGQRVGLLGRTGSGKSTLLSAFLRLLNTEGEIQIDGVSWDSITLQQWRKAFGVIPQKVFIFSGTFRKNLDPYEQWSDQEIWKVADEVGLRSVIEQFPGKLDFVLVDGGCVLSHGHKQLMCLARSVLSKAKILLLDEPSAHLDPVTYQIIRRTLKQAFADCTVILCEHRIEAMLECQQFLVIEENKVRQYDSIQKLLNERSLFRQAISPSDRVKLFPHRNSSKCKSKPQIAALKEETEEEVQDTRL

SMILES | ΔSPQ (difference between maximum and minimum SPQ values) (CFBE41o- cells, 48 h) [RFU] | EC50 (CFBE41o- cells, 48 h) [µM] | potency and efficacy compared with VX-809 in SPQ assay | ΔSPQ (Trial 2) | EC50 (Trial 2) [µM]
C=CCn1c(C)cn2c3c(=O)n(Cc4cccc(C)c4)c(=O)n(C)c3nc12 [Compound I-21] | 7073 | 9.4 | – | – | –
C=CCn1c(C)cn2c3c(=O)n(Cc4ccc(F)cc4)c(=O)n(C)c3nc12 [Compound I-22] | 8993 | 6.3 | – | – | –
CCn1c(=O)c2c(nc3n(-c4cccc(Cl)c4C)c(C)cn23)n(C)c1=O [Compound I-23] | 13290 | 10.5 | – | – | –
CCCn1c(C)cn2c3c(=O)n(Cc4cccc(C)c4)c(=O)n(C)c3nc12 [Compound I-24] | 5227 | 3.7 | – | – | –
CCn1c(=O)c2c(nc3n(-c4ccccc4OC)c(C)c(C)n23)n(C)c1=O [Compound I-25] | 6949 | 10.4 | – | – | –
C=CCn1c(=O)c2c(nc3n(-c4ccc(OC)cc4)c(C)c(C)n23)n(C)c1=O [Compound I-26] | 4090 | 3.1 | – | – | –
C/C=C/Cn1c(=O)c2c(nc3n(CCCC)c(C)cn23)n(C)c1=O [Compound I-27] | 8829 | 18.4 | – | – | –
CCCCn1c(=O)c2c(nc3n(CCO)c(C)cn23)n(C)c1=O [Compound I-28] | 1344 | 3 | – | – | –
CCn1c(=O)c2c(nc3n(-c4cccc(OC)c4)c(C)c(C)n23)n(C)c1=O [Compound I-29] | 10298 | 9.6 | – | – | –
CCn1c(=O)c2c(nc3n(C(C)c4ccccc4)c(C)cn23)n(C)c1=O (centres unmarked) [Compound I-30] | 18574 | 22.6 | – | – | –
CCCn1c(=O)c2c(nc3n(CC(C)C)c(C)c(C)n23)n(C)c1=O [Compound I-31] | 300 | 12.7 | – | – | –
CCCn1c(=O)c2c(nc3n(Cc4ccco4)c(C)c(C)n23)n(C)c1=O [Compound I-32] | 2989 | 3.3 | – | – | –
CCc1ccc(-n2c(C)c(C)n3c4c(=O)n(CCCO)c(=O)n(C)c4nc23)cc1 [Compound I-33] | 16061 | 18.9 | – | – | –
CCCn1c(=O)c2c(nc3n(Cc4ccccc4)c(C)c(C)n23)n(C)c1=O [Compound I-34] | 9486 | 4.6 | superior potency and efficacy to VX-809 | – | –
CCn1c(=O)c2c(nc3n(-c4cccc(OC)c4)c(C)cn23)n(C)c1=O [Compound I-35] | 13989 | 18.1 | – | – | –
CCn1c(=O)c2c(nc3n(Cc4ccco4)c(C)c(C)n23)n(C)c1=O [Compound I-36] | 3375 | 7.1 | – | – | –
CCCn1c(=O)c2c(nc3n(C(C)CC)c(C)cn23)n(C)c1=O (centres unmarked) [Compound I-37] | 8170 | 10.7 | – | – | –
C=CCn1c(=O)c2c(nc3n(CC(C)C)c(C)c(C)n23)n(C)c1=O [Compound I-38] | 8563 | 7.8 | – | – | –
Cc1cc(C)cc(-n2c(C)cn3c4c(=O)n(CCCO)c(=O)n(C)c4nc23)c1 [Compound I-39] | 11432 | 13 | – | – | –
CCOCCn1c(=O)c2c(nc3n2CCN3c2cc(C)ccc2C)n(C)c1=O [Compound I-40] | 12347 | 9.5 | – | – | –

SMILES | ΔSPQ (difference between maximum and minimum SPQ values) (CFBE41o- cells, 48 h) [RFU] | EC50 (CFBE41o- cells, 48 h) [µM] | potency and efficacy compared with VX-809 in SPQ assay | ΔSPQ (Trial 2) | EC50 (Trial 2) [µM]
Cc1c(C)n2c3c(=O)n(CCCO)c(=O)n(C)c3nc2n1-c1ccccc1 [Compound I-41] | 11080 | 20.3 | – | – | –
CCc1ccc(-n2c(C)cn3c4c(=O)n(CCCO)c(=O)n(C)c4nc23)cc1 [Compound I-42] | 14593 | 19.7 | – | – | –
C=CCn1c(=O)c2c(nc3n(C(C)c4ccccc4)c(C)c(C)n23)n(C)c1=O (centres unmarked) [Compound I-43] | 9439 | 3.4 | – | – | –
Cc1c(C)n2c3c(=O)n(CC(C)C)c(=O)n(C)c3nc2n1Cc1ccco1 [Compound I-44] | 9148 | 10 | – | – | –
CCOCCn1c(=O)c2c(nc3n(-c4ccc(OC)cc4)c(C)c(C)n23)n(C)c1=O [Compound I-45] | 5321 | 23.3 | – | – | –
CCCCn1c(C)cn2c3c(=O)n(CC(=O)OC)c(=O)n(C)c3nc12 [Compound I-46] | 5027 | 10.6 | – | – | –
Cc1c(C)n2c3c(=O)n(CCCO)c(=O)n(C)c3nc2n1Cc1ccco1 [Compound I-47] | 7294 | 10.6 | – | – | –
Cc1c(C)n2c3c(=O)n(CCCO)c(=O)n(C)c3nc2n1CCc1ccccc1 [Compound I-48] | 5300 | 3.3 | – | – | –
CCC(C)n1c(C)c(C)n2c3c(=O)n(CC(=O)OC)c(=O)n(C)c3nc12 (centres unmarked) [Compound I-49] | 9652 | 9 | – | – | –
Cc1c(C)n2c3c(=O)n(C/C=C/c4ccccc4)c(=O)n(C)c3nc2n1CCCO [Compound I-50] | 3639 | > 30 | – | – | –
CCCCn1c(=O)c2c(nc3n(CCN4CCOCC4)c(C)c(C)n23)n(C)c1=O [Compound I-51] | 9639 | > 30 | – | – | –
C/C=C/Cn1c(=O)c2c(nc3n(Cc4ccco4)c(C)cn23)n(C)c1=O [Compound I-52] | 6282 | > 30 | – | – | –
C/C=C/Cn1c(=O)c2c(nc3n2CCN3Cc2ccco2)n(C)c1=O [Compound I-53] | 6050 | 11 | – | – | –
CCn1c(=O)c2c(nc3n2CCN3Cc2ccco2)n(C)c1=O [Compound I-54] | 3397 | > 30 | – | – | –
CC(C)CCn1c(=O)c2c(nc3n2CCN3Cc2ccco2)n(C)c1=O [Compound I-55] | 4315 | > 30 | – | – | –
C/C=C/Cn1c(=O)c2c(nc3n(C(C)CC)c(C)c(C)n23)n(C)c1=O (centres unmarked) [Compound I-56] | 2183 | 0.2 | superior potency and efficacy to VX-809 | – | –
CCn1c(=O)c2c(nc3n(-c4ccccc4C)c(C)c(C)n23)n(C)c1=O [Compound I-57] | 4000 | 7.9 | – | – | –
CCC(C)n1c(C)c(C)n2c3c(=O)n(CC)c(=O)n(C)c3nc12 (centres unmarked) [Compound I-58] | 3361 | 8.4 | – | – | –
Cn1c(=O)n(Cc2ccccc2)c(=O)c2c1nc1oc(C(C)(C)C)cn12 [Compound II-2] | 13312 | 10.4 | superior potency and efficacy to VX-809 | – | –
CCn1c(=O)c2c(nc3oc(C(C)(C)C)cn32)n(C)c1=O [Compound II-3] | 3935 | 8.6 | superior potency and efficacy to VX-809 | (Trial 2: 4413) RFU | 12.7
